Columns and labels:
CRMP4b-RhoA binding = biological target: T1, CRMP4b-RhoA binding (Homo sapiens, UniProt P61586); assay: CRMP-RhoA co-immunoprecipitation, full length CRMP4b binding to RhoA in co-transfected HEK293T cells; type: cell-based, rat; conditions: co-transfection with myc-RhoAWT and CRMP4-V5, myc-immunoprecipitation, FIG. 7c
T1 construct: expressed in transfected cells; host or cells: HEK293T
Description: (§1) HEK 293T cells were grown to sub-confluence and transfected with Lipofectamine 2000 according to manufacturer instructions (Invitrogen, Burlington, Ontario), washed twice with ice-cold PBS and lysed in lysis buffer A (50 mM Tris, pH 7.4, 150 mM NaCl, 1 mM EDTA, 1% (v/v) Triton X-100, 1 mM Na3VO4, 1 mM NaF, 1 mM PMSF and CØmplete protease inhibitors (Roche Diagnostics, Laval, PQ)). Lysates were pre-cleared with protein A/G-agarose (Santa Cruz Biotechnology, Santa Cruz, Calif.) and subjected to immunoprecipitation with myc-agarose or V5-agarose (Sigma Chemical Co., Oakville, Ontario). After washing 3 times with ice-cold PBS, bound protein was eluted with SDS and immunoblotted with anti-Myc (9E10, 1:1000; Sigma Chemical Co., Oakville, Ontario) or anti-V5 (1:5000; Invitrogen, Burlington, Ontario). For time course experiments, PC12 cells were transfected for 24 hours using Lipofectamine 2000 (Invitrogen, Burlington, Ontario) and differentiated with 50 ng/ml nerve growth factor (NGF; Upstate Biotechnology, Waltham, Mass.) for 24 hours. Cells were treated with Nogo-P4 peptide for the indicated period of time at 37° C. Cells were then lysed and proteins were immunoprecipitated as described above.

CRMP4a-RhoA binding = biological target: T2, CRMP4a-RhoA binding (Homo sapiens, UniProt P61586); assay: CRMP-RhoA co-immunoprecipitation, CRMP4a binding to RhoA in co-transfected HEK293T cells; type: cell-based, rat; conditions: co-transfection with myc-RhoAWT and CRMP4-V5, myc-immunoprecipitation, FIG. 7c
T2 construct: expressed in transfected cells; host or cells: HEK293T
Description: as §1

[1] = biological target: T3, binding between FLAG-RhoA63L and myc-ROCK (Homo sapiens, UniProt P61586, Q63L); assay: Co-immunoprecipitation of FLAG-RhoA63L and myc-ROCK in co-transfected HEK293T cells; type: cell-based; conditions: FIG. 7d
T3 construct: expressed in transfected cells; host or cells: HEK293T
Description: as §1

[2] = tested on: dissociated E13 chick DRG neurons; assay: Neurite outgrowth assay on myelin substrate, HSV-infected neurons; type: cell-based; conditions: introduced via recombinant HSV, compared to GFP- or full length CRMP4b-infected neurons, FIG. 8b, d
Description: (§2) For neurite outgrowth assays, myelin was dried down on poly-L-lysine-coated substrates. Substrates were washed and coated with 10 μg/ml laminin for 1 hr. For outgrowth on aggrecan, poly-L-lysine-coated substrates were coated with aggrecan and 10 μg/ml laminin for 2 hr at 37° C. Dissociated E13 chick DRG neurons were cultured in DRG media (F-12 medium. 10% FBS, 1% penicillin/streptomycin, 1% L-glutamine, 50 ng/ml NGF) in the presence of virus for 24 hours, fixed with 4% paraformaldehyde/20% sucrose in PBS and double stained with anti-βIII tubulin (Covance, Berkeley, Calif.) and anti-V5 antibody (Sigma Chemical Co. Oakville, Ontario). Neurite outgrowth lengths per cell were assessed using Image J, a public domain JAVA image processing program as previously described (Fournier et al., 2003).

[3] = tested on: dissociated E13 chick DRG neurons; assay: Neurite outgrowth assay on laminin (control) substrate, HSV-infected neurons; type: cell-based; conditions: introduced via recombinant HSV, normalized to GFP-infected neurons, FIG. 8b, c
Description: as §2

[4] = tested on: dissociated E13 chick DRG neurons; assay: Neurite outgrowth assay on aggrecan substrate, HSV-infected neurons; type: cell-based; conditions: introduced via recombinant HSV, FIG. 8e
Description: as §2

E8 chick DRG neurons = assay: Sema3A-dependent growth cone collapse assay; type: cell-based; conditions: HSV-infected, stimulated 20 min with AP-Sema3A ligand, FIG. 8f
Description: […] Sema3A-AP or AP conditioned media was prepared as described previously (Takahashi et al., 1998). Explants were stimulated with Sema3A-AP- or AP-conditioned media at indicated concentrations for 20 min and fixed with 4% paraformaldehyde, 20% sucrose and 0.1M NaPO4. Explants were stained with rhodamine phalloidin and assessed for growth cone collapse as described (Luo et al., 1993).

E13 chick DRG neurons = assay: Filopodia and neurite branch analysis of HSV-infected DRG growth cones; type: cell-based; conditions: overexpression by HSV infection
Description: E7-13 chick DRG explants were cultured in DRG media on poly-L-lysine- and laminin-coated substrates for 18 hours. For viral infections, recombinant viral preparations were added to the media 1 hour after plating. After 18 hours, cultures were treated with myelin and fixed with 4% paraformaldehyde/20% sucrose/PBS, permeabilized in 0.2% triton X-100 and double stained with polyclonal anti-RhoA antibody (Santa Cruz Biotechnology, Santa Cruz, Calif.) and anti-CRMP4b or V5 antibody. For filopodia and branch analysis, GFP and CRMP4bV5-infected growth cones were double stained with rhodamine-phalloidin (Molecular Probes, Eugene, Oreg.) and anti-V5 antibody. Filopodial length per growth cone was assessed using Image J, by measuring total filopodial length per growth cone averaged by the total number of filopodia per growth cone. Neurite branches were quantified by counting total branch buds per neurite.

T3 sequence (P61586 1-190 Q63L limits assumed): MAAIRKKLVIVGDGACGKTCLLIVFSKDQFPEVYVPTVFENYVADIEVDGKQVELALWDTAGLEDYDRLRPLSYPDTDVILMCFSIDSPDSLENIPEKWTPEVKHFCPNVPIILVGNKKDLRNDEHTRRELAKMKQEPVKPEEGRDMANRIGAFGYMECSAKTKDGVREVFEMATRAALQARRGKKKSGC
T1 sequence (P61586 1-190 limits assumed): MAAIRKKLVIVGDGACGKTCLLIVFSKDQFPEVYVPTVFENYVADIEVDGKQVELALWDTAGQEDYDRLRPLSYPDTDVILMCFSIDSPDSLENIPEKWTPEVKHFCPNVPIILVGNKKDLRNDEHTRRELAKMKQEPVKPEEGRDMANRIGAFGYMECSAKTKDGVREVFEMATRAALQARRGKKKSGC
T2 sequence (P61586 1-190 limits assumed): as above

Substance	effect on RhoA binding to full length CRMP4b (CRMP4b-RhoA binding)	effect on RhoA binding to CRMP4a (CRMP4a-RhoA binding)	effect on binding between FLAG-RhoA63L and myc-ROCK [1]	neurite outgrowth on myelin substrate (myelin-dependent outgrowth inhibition) [2]	basal neurite outgrowth on permissive control (laminin) substrate [3]	neurite outgrowth on aggrecan [4]	Sema3A-dependent growth cone collapse (E8 chick DRG neurons)	branches per neurite (E13 chick DRG neurons; average (GFP-infected: 2), FIG. 5g) [branches per neurite]	filopodia length increase versus GFP-infected growth cones (E13 chick DRG neurons; average, FIG. 5e, f, g) [%]
C4RIP-V5: CRMP4b-RhoA Inhibitory Peptide: first 126 residues of the unique amino terminal domain of CRMP4b (SEQ ID NO: 2), fused to a V5-epitope tag	significantly diminishes RhoA binding to full length CRMP4b	without affecting binding to CRMP4a	does not diminish binding between FLAG-RhoA63L and myc-ROCK	significantly attenuates myelin-dependent outgrowth inhibition	does not promote basal DRG outgrowth on permissive control substrates	promotes neurite outgrowth on aggrecan	no effect on Sema3A-dependent growth cone collapse	–	–
CRMP4b-V5: full length rat CRMP4b (SEQ ID NO: 1) with V5-His tag, overexpressed via HSV or plasmid	–	–	does not affect the binding between FLAG-RhoA63L and myc-ROCK	–	not sufficient to mimic myelin inhibitory responses	–	–	8	70
